Measurements taken from patent publication US20160237302A1, “WATERBORNE COMPOSITIONS” (VICTORIA LINK LIMITED, priority 2013, published 2016).

Assays:
Format in all cases: physicochemical
[1] = Appearance of polyketone in water at 20% w/v
Experimental: (§1) To a solution or dispersion of the polyketone (1 g in 5 mL of distilled water) is added hydrazide (0.9 stoichiometric equivalents of acyl hydrazide moiety compared to ketone functional group).

[2] = Appearance of aqueous composition on hydrazide addition (polyhydrazone formation); conditions: appearance in water; for Polyhydrazone from 0.9 eq Formula II-B addition / Polyhydrazone from 0.9 eq Formula II-C addition: polyketone 20% w/v; for Polyhydrazone from 0.9 eq ADH addition: polyketone 20% w/v + 0.9 eq ADH
Experimental: as §1

[3] = Glass transition temperature by DSC; conditions: for Tg: polyhydrazone from polyketone + 0.9 eq ADH, DSC
Experimental: Glass transition temperatures (Tg) are measured by differential scanning calorimetry (DSC). Samples were prepared by compressing 2-20 mg of material into a 40 μL pierced aluminium pan and were scanned between −40° and +180° C. at either 10° C./min or 5° C./min. The samples were heated and cooled three times and Tg data were obtained from the second and third sweep; ignoring the initial annealing and desolvating sweep. Tg were determined by observation of the rate of change of slope and baseline shift for the glass and plastic states.
as §1

[4] = Appearance of aqueous composition on hydrazide addition (polyhydrazone formation); conditions: water
[5] = Film formation of cast polyhydrazone material; conditions: for Cast material: cast from water
Experimental: as §1

[6] = Polyhydrazone formation in ACN, ACN/water, THF/water or water at 20-50% w/v; conditions: appearance
[7] = polyhydrazone from polyketone + 0.9 eq ADH
[8] = polyhydrazone from (7) and formula II-C, cast film

Question: What does the source list for `CC(=O)CCC(=O)OCCN(CCOC(=O)CCC(C)=O)CCOC(=O)CCC(C)=O` [Polyketone compound (6), Triethanolamine Trilevulinate]?
Answer: Polyketone in water at 20% w/v ([1]; 1 g in 5 mL distilled water): Clear solution; Polyketone in water at 20% w/v ([1]; second table): Clear solution; Polyhydrazone from 0.9 eq Formula II-B addition [2]: No reaction; Polyhydrazone from 0.9 eq Formula II-C addition [2]: Forms white solid; Polyhydrazone from 0.9 eq ADH addition [2]: Clear solution; Tg [3]: 38 °C; Polyhydrazone from 0.9 eq ADH addition, at higher concentrations [4]: Gels at higher

Question: For `CC(=O)CCC(=O)OC(C)C(C)OC(=O)CCC(C)=O` (stereo not drawn) [Polyketone compound (7), 2,3-Butanediol Dilevulinate], which “Polyketone in water at 20% w/v” value ([1]; 1 g in 5 mL distilled water) is on record?
Answer: Unstable emulsion

Question: What about the “Polyhydrazone from 0.9 eq ADH addition” value [2] of the same molecule?
Answer: Opaque solution

Question: What about the “Cast film of polyhydrazone oil” value ([5]; polyhydrazone from (7) and formula II-C) of the same molecule?
Answer: strong brittle film

Question: And the Cast material [5, 7]?
Answer: Hard film

Question: What about the “Tg (annealed)” value [3, 8] of the same molecule?
Answer: 20 °C

Question: What about the “Tg (initial)” value [3, 8] of the same molecule?
Answer: 38.5 °C

Question: And the Tg [3]?
Answer: 121 °C

Question: And the “Polyhydrazone from 0.9 eq ADH in ACN at 50% w/v” value [6]?
Answer: Pale yellow solid

Question: And the “Polyhydrazone from 0.9 eq ADH in water at 50% w/v” value [6]?
Answer: Pale yellow gel

Question: What about the “Polyhydrazone from 0.9 eq. Formula II-C in ACN at 50% w/v” value [6] of the same molecule?
Answer: Yellow oil

Question: With `CC(=O)CCC(=O)OCc1ccc(COC(=O)CCC(C)=O)cc1` [Polyketone compound (8), 1,4-Dimethanolbenzene Dilevulinate] as the molecule, how does the “Polyhydrazone from 0.9 eq ADH in ACN at 50% w/v” value [6] read?
Answer: Yellow oil formed

Question: And the “Polyhydrazone from 0.9 eq ADH in water at 50% w/v” value [6]?
Answer: Pale yellow gel

Question: For `CC(=O)CCC(=O)OCCOCCOC(=O)CCC(C)=O` [Polyketone compound (2), Diethyleneglycol Dilevulinate], which “Polyketone in water at 20% w/v” value ([1]; 1 g in 5 mL distilled water) is on record?
Answer: Clear solution

Question: What about the “Polyketone in water at 20% w/v” value ([1]; second table) of the same molecule?
Answer: Clear solution

Question: And the “Polyhydrazone from 0.9 eq Formula II-B addition” value [2]?
Answer: Cloudy solution, gel

Question: What about the “Polyhydrazone from 0.9 eq Formula II-C addition” value [2] of the same molecule?
Answer: Cloudy solution,

Question: And the “Polyhydrazone from 0.9 eq ADH addition” value [2]?
Answer: Clear solution

Question: And the “Time over which cast film hardened” value [5, 7]?
Answer: hardened over 5-days.

Question: And the Cast material [5, 7]?
Answer: Soft easily marked film that

Question: And the Tg [3]?
Answer: 27 °C

Question: Which “Polyketone in water at 20% w/v” value ([1]; 1 g in 5 mL distilled water) does the source give for `CC(=O)CCC(=O)OCC(COC(=O)CCC(C)=O)OC(=O)CCC(C)=O` [Polyketone compound (3), Glycerol Trilevulinate] here?
Answer: Unstable emulsion

Question: What about the “Polyhydrazone from 0.9 eq ADH addition” value [2] of the same molecule?
Answer: Gels upon

Question: What about the Cast material [5, 7] of the same molecule?
Answer: Hard shiny well adhered

Question: And the Tg [3]?
Answer: 60 °C

Question: For `CC(=O)CCC(=O)OCCOC(=O)CCC(C)=O` [Polyketone compound (1), Ethyleneglycol Dilevulinate], which “Polyketone in water at 20% w/v” value ([1]; 1 g in 5 mL distilled water) is on record?
Answer: Clear solution

Question: And the “Polyketone in water at 20% w/v” value ([1]; second table)?
Answer: Clear solution

Question: And the “Polyhydrazone from 0.9 eq Formula II-B addition” value [2]?
Answer: White precipitate

Question: And the “Polyhydrazone from 0.9 eq ADH addition” value [2]?
Answer: Clear solution

Question: What about the “Polyhydrazone from 0.9 eq Formula II-C addition” value ([2]; initially after hydrazide addition) of the same molecule?
Answer: Clear solution

Question: And the “Polyhydrazone from 0.9 eq Formula II-C addition” value ([2]; subsequently after hydrazide addition)?
Answer: precipitate forms

Question: What about the Cast material [5, 7] of the same molecule?
Answer: Shiny soft well adhered

Question: What about the Tg [3] of the same molecule?
Answer: 37 °C
